Experimental data published in US9315491B2 (DEVELOPMENT CENTER FOR BIOTECHNOLOGY, priority 2009, dated 2016).

Biological target: recombinant mTOR (Homo sapiens (Human), UniProt P42345)
Assay: mTOR kinase assay (33P incorporation into 4EBP1)
Format: biochemical
Conditions: compound at 10 μM, 10 μM ATP
Method in brief: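 Recombinant human mTOR (50 ng) phosphorylated His-tagged 4EBP1 (300 ng) with 10 μM ATP plus [γ-33P]-ATP in HEPES pH 7.5, MnCl2, EGTA and DTT for 30 min at 30° C. Labelled 4EBP1 was filter-captured and counted. IC50 was derived from eight-point duplicate dilution series.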

Chain of recombinant mTOR (P42345 1360-2549): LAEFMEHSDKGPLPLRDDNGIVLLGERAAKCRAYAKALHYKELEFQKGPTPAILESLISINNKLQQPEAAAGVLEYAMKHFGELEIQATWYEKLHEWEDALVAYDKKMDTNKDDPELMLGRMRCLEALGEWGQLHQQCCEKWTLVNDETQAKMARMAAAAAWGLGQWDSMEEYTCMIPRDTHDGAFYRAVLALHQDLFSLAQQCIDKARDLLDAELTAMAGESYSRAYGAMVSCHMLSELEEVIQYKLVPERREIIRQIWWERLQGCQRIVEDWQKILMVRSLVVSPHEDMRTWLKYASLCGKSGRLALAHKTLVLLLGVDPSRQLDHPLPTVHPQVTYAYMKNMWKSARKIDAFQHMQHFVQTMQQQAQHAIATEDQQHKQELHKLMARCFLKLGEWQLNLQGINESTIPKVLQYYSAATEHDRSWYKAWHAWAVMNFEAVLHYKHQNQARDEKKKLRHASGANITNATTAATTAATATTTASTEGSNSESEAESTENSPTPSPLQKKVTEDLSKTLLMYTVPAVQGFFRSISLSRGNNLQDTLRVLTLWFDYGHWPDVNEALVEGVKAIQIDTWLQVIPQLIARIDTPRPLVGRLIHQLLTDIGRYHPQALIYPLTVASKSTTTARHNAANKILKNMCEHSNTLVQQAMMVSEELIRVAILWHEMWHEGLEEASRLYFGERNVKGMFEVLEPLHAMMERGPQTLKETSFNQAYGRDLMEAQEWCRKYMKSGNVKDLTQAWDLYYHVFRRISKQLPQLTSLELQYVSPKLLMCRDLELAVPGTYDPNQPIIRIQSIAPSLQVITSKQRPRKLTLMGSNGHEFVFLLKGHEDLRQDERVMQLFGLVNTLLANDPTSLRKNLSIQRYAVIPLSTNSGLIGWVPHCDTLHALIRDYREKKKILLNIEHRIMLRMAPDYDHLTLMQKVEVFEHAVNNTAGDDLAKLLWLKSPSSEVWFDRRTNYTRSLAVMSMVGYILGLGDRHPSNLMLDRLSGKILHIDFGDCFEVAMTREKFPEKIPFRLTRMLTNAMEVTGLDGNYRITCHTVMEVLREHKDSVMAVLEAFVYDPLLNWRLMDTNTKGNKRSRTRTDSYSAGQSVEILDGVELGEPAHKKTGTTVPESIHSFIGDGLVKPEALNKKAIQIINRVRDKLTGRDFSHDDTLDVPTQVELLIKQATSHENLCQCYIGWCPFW

Structure (SMILES)	inhibition at 10 µM [%]	% Inhibition @ 10 μM [%]
CCOC(=O)c1nc(-c2ccc(NC(=O)Nc3ccc(N4CCN(S(C)(=O)=O)CC4)cc3)cc2)nc(N2CCOCC2)c1OCC [MTR-0419, 5-Ethoxy-2-(4-{3-[4-(4-methanesulfonyl-piperazin-1-yl)-phenyl]-ureido}-phenyl)-6-morpholin-4-yl-pyrimidine-4-carboxylic acid ethyl ester]	82	
CCOC(=O)c1nc(-c2ccc(NC(=O)Nc3ccc4[nH]c(=O)oc4c3)cc2)nc(N2CCOCC2)c1OCC [MTR-0423, 5-Ethoxy-6-morpholin-4-yl-2-{4-[3-(2-oxo-2,3-dihydro-benzooxazol-6-yl)-ureido]-phenyl}-pyrimidine-4-carboxylic acid ethyl ester]	95	
CSc1cnc(-c2ccc(NC(=O)Nc3ccc(N4CCN(S(C)(=O)=O)CC4)cc3)cc2)nc1N1CCOCC1 [MTR-0430, 1-[4-(4-Methanesulfonyl-piperazin-1-yl)-phenyl]-3-[4-(5-methylsulfanyl-4-morpholin-4-yl-pyrimidin-2-yl)-phenyl]-urea]	86	
CSc1c(Cl)nc(-c2ccc(NC(=O)Nc3ccc(S(=O)(=O)N4CCOCC4)cc3)cc2)nc1N1CCOCC1 [MTR-0435, 1-[4-(4-Chloro-5-methylsulfanyl-6-morpholin-4-yl-pyrimidin-2-yl)-phenyl]-3-[4-(morpholine-4-sulfonyl)-phenyl]-urea]	90	
CSc1c(-c2cccnc2)nc(-c2ccc(NC(=S)Nc3ccccc3)cc2)nc1N1CCOCC1 [MTR-0440, 1-[4-(5-Methylsulfanyl-4-morpholin-4-yl-6-pyridin-3-yl-pyrimidin-2-yl)-phenyl]-3-phenyl-thiourea]	89	
CSc1cnc(-c2ccc(NC(=O)Nc3ccc4[nH]c(=O)oc4c3)cc2)nc1N1CCOCC1 [MTR-0459, 1-[4-(5-Methylsulfanyl-4-morpholin-4-yl-pyrimidin-2-yl)-phenyl]-3-(2-oxo-2,3-dihydro-benzooxazol-6-yl)-urea]	88	
CSc1c(-c2ccncc2)nc(-c2ccc(NC(=S)Nc3ccccc3)cc2)nc1N1CCOCC1 [MTR-0468, 1-[4-(5-Methylsulfanyl-4-morpholin-4-yl-6-pyridin-4-yl-pyrimidin-2-yl)-phenyl]-3-phenyl-thiourea]	97	
COc1cnc(-c2ccc(NC(=O)Nc3ccc(S(C)(=O)=O)cc3)cc2)nc1N1CCOCC1 [MTR-0470, 1-(4-Methanesulfonyl-phenyl)-3-[4-(5-methoxy-4-morpholin-4-yl-pyrimidin-2-yl)-phenyl]-urea]	88	
COc1cnc(-c2ccc(NC(=O)Nc3ccc(N4CCOCC4=O)cc3)cc2)nc1-c1ccncc1 [MTR-0474, 1-[4-(5-Methoxy-4-pyridin-4-yl-pyrimidin-2-yl)-phenyl]-3-[4-(3-oxo-morpholin-4-yl)-phenyl]-urea]	88	
CSc1c(-c2ccncc2)nc(-c2ccc(NC(=O)NC(C)C)cc2)nc1N1CCOCC1 [MTR-0479, 1-Isopropyl-3-[4-(5-methylsulfanyl-4-morpholin-4-yl-6-pyridin-4-yl-pyrimidin-2-yl)-phenyl]-urea]	95	
COc1cnc(-c2ccc(NC(=O)Nc3ccncc3)cc2)nc1-c1ccncc1 [MTR-0480, 1-[4-(5-Methoxy-4-pyridin-4-yl-pyrimidin-2-yl)-phenyl]-3-pyridin-4-yl-urea]	90	
COc1c(-c2ccc(N)cc2)nc(-c2ccc(N)cc2)nc1N1CCOCC1 [MTR-0483]		88
CSc1c(-c2ccncc2)nc(-c2ccc(NC(=O)Nc3ccon3)cc2)nc1N1CCOCC1 [MTR-0485, 1-Isoxazol-3-yl-3-[4-(5-methylsulfanyl-4-morpholin-4-yl-6-pyridin-4-yl-pyrimidin-2-yl)-phenyl]-urea]	100	
COc1cnc(-c2ccc(NC(=O)Nc3ccc(NC(C)=O)nc3)cc2)nc1N1CCOCC1 [MTR-0486, N-(5-{3-[4-(5-Methoxy-4-morpholin-4-yl-pyrimidin-2-yl)-phenyl]-ureido}-pyridin-2-yl)-acetamide]	88	
CCOc1c(-c2cccnc2)nc(-c2ccc(NC(=O)Nc3ccncc3)cc2)nc1N1CCOCC1 [MTR-0490, 1-[4-(5-Ethoxy-4-morpholin-4-yl-6-pyridin-3-yl-pyrimidin-2-yl)-phenyl]-3-pyridin-4-yl-urea]	102	
CCOc1c(-c2cccnc2)nc(-c2ccc(NC(=O)Nc3cccnc3)cc2)nc1N1CCOCC1 [MTR-0491, 1-[4-(5-Ethoxy-4-morpholin-4-yl-6-pyridin-3-yl-pyrimidin-2-yl)-phenyl]-3-pyridin-3-yl-urea]	100	
CCOc1c(-c2ccncc2)nc(-c2ccc(NC(=O)Nc3ccncc3)cc2)nc1N1CCOCC1 [MTR-0492, 1-[4-(5-Ethoxy-4-morpholin-4-yl-6-pyridin-4-yl-pyrimidin-2-yl)-phenyl]-3-pyridin-4-yl-urea]	100	
CCOc1c(-c2ccncc2)nc(-c2ccc(NC(=O)Nc3cccnc3)cc2)nc1N1CCOCC1 [MTR-0493, 1-[4-(5-Ethoxy-4-morpholin-4-yl-6-pyridin-4-yl-pyrimidin-2-yl)-phenyl]-3-pyridin-3-yl-urea]	99	
CCOc1c(Cl)nc(-c2ccc(NC(=O)Nc3ccc(N4CCOCC4=O)cc3)cc2)nc1N1CCOCC1 [MTR-0494, 1-[4-(4-Chloro-5-ethoxy-6-morpholin-4-yl-pyrimidin-2-yl)-phenyl]-3-[4-(3-oxo-morpholin-4-yl)-phenyl]-urea]	86	
CCOc1c(-c2ccncc2)nc(-c2ccc(NC(=O)Nc3ccc(N4CCOCC4=O)cc3)cc2)nc1N1CCOCC1 [MTR-0495, 1-[4-(5-Ethoxy-4-morpholin-4-yl-6-pyridin-4-yl-pyrimidin-2-yl)-phenyl]-3-[4-(3-oxo-morpholin-4-yl)-phenyl]-urea]	100	
CCOc1c(-c2cccnc2)nc(-c2ccc(NC(=O)Nc3ccc(N4CCOCC4=O)cc3)cc2)nc1N1CCOCC1 [MTR-0496, 1-[4-(5-Ethoxy-4-morpholin-4-yl-6-pyridin-3-yl-pyrimidin-2-yl)-phenyl]-3-[4-(3-oxo-morpholin-4-yl)-phenyl]-urea]	95	

Biological target: PI3K (p110α/p85α) (Homo sapiens (Human), UniProt P42336)
Sequence (P42336 whole entry, species assumed): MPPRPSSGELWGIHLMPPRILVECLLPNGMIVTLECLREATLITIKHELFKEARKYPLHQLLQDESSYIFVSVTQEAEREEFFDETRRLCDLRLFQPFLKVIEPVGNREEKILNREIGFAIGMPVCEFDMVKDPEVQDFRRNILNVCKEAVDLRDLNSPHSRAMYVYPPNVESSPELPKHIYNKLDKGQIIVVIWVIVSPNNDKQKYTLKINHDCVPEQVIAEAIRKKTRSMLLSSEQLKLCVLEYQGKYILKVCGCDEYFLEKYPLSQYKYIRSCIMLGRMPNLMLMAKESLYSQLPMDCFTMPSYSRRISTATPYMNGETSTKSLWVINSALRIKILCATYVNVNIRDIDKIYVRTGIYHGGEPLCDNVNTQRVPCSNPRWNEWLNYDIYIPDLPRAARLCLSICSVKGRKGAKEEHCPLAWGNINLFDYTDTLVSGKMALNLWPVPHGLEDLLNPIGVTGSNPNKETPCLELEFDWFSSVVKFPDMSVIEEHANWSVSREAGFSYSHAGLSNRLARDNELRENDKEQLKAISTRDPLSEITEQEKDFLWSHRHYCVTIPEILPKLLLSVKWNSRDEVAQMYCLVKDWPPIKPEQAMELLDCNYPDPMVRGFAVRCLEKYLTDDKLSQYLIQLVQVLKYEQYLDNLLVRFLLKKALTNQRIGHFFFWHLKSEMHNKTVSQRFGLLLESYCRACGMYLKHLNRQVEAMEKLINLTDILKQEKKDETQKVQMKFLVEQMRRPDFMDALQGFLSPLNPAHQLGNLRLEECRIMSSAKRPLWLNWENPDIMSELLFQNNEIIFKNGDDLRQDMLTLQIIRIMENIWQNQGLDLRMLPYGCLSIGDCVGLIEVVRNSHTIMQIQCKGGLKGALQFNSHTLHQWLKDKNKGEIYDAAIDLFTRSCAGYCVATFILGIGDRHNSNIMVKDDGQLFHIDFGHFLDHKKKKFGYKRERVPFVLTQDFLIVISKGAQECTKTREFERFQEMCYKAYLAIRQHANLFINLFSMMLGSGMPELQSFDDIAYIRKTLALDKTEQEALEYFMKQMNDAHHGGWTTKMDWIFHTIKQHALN
Sequence (P27986 whole entry partner, species assumed): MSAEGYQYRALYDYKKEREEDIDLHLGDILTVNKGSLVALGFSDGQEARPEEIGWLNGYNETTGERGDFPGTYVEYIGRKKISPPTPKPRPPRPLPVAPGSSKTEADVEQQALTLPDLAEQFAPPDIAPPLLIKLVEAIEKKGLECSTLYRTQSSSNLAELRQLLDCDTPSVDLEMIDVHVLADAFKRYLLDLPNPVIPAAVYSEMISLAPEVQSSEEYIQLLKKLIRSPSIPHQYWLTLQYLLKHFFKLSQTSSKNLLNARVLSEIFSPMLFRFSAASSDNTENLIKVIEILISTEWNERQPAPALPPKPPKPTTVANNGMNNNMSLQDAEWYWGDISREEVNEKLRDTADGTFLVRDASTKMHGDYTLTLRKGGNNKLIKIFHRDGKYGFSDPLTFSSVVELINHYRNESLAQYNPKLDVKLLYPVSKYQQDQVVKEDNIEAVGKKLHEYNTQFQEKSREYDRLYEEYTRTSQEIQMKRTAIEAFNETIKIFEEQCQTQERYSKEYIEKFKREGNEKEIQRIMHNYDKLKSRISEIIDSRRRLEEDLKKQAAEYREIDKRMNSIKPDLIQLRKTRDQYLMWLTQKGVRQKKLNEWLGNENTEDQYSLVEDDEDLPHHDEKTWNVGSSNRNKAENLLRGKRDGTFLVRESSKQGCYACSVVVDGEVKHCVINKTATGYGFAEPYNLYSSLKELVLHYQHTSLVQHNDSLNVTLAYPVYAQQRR
Assay: PI3K HTRF enzyme assay, p110α/p85α
Format: biochemical
Conditions: read-out: % inhibition @ 500 nM p110α; compound at 500 nM, 10 μM ATP
Description: Recombinant PI3K (p110α/p85α) and PI3K (p110β/p85α) were from Millipore. […] Briefly, the compounds of interest dissolved in 100% DMSO were dispensed in all wells, following which the mixture of PIP2 and enzyme was added. PI3K (p110α/p85α) and PI3K (p110β/p85α) enzyme reactions were initiated in the presence of 10 μM and 100 μM ATP, respectively, and incubated for 30 min at room temperature. STOP solution prepared 2 hours prior to use was added to stop reactions, and mixed well. Detection solution prepared 2 hours prior to use was added, and incubated at room temperature for 17 hours in the dark. […] HTRF ration was calculated as follows: […]

Structure (SMILES)	inhibition at 0.5 µM [%]
CCOC(=O)c1nc(-c2ccc(NC(=O)Nc3ccccc3)cc2)nc(N2CCOCC2)c1OCC [MTR-0069, 5-Ethoxy-6-morpholin-4-yl-2-[4-(3-phenyl-ureido)-phenyl]-pyrimidine-4-carboxylic acid ethyl ester]	53.8
CSc1c(Cl)nc(-c2ccc(NC(N)=O)cc2)nc1N1CCOCC1 [MTR-0083, [4-(4-Chloro-5-methylsulfanyl-6-morpholin-4-yl-pyrimidin-2-yl)-phenyl]-urea]	44.8
CCOc1c(C(=O)N2CCOCC2)nc(-c2ccc(NC(=O)Nc3ccccc3)cc2)nc1N1CCOCC1 [MTR-0124, 1-{4-[5-Ethoxy-4-(morpholine-4-carbonyl)-6-morpholin-4-yl-pyrimidin-2-yl]-phenyl}-3-phenyl-urea]	49.1
COc1cnc(-c2ccc(NC(=O)Nc3ccccc3)cc2)nc1N1CCOCC1 [MTR-0128, 1-[4-(5-Methoxy-4-morpholin-4-yl-pyrimidin-2-yl)-phenyl]-3-phenyl-urea]	85.8
COc1cnc(-c2ccc(NC(=O)Nc3ccc(F)cc3)cc2)nc1N1CCOCC1 [MTR-0152, 1-(4-Fluoro-phenyl)-3-[4-(5-methoxy-4-morpholin-4-yl-pyrimidin-2-yl)-phenyl]-urea]	83
COc1cnc(-c2ccc(NC(=O)Nc3ccc(F)c(F)c3)cc2)nc1N1CCOCC1 [MTR-0165, 1-(3,4-Difluoro-phenyl)-3-[4-(5-methoxy-4-morpholin-4-yl-pyrimidin-2-yl)-phenyl]-urea]	101
CSc1c(N2CCOCC2)nc(-c2ccc(NC(=O)Nc3ccccc3)cc2)nc1N1CCN(S(C)(=O)=O)CC1 [MTR-0173, 1-{4-[4-(4-Methanesulfonyl-piperazin-1-yl)-5-methylsulfanyl-6-morpholin-4-yl-pyrimidin-2-yl]-phenyl}-3-phenyl-urea]	82.1
CSc1c(Cl)nc(-c2ccc(NC(=O)Nc3cccnc3)cc2)nc1N1CCOCC1 [MTR-0197, 1-[4-(4-Chloro-5-methylsulfanyl-6-morpholin-4-yl-pyrimidin-2-yl)-phenyl]-3-pyridin-3-yl-urea]	59.8
CCOC(=O)c1nc(-c2ccc(NC(=O)Nc3cccnc3)cc2)nc(N2CCOCC2)c1OCC [MTR-0205, 5-Ethoxy-6-morpholin-4-yl-2-[4-(3-pyridin-3-yl-ureido)-phenyl]-pyrimidine-4-carboxylic acid ethyl ester]	42.6
CSc1c(Cl)nc(-c2ccc(NC(=O)Nc3ccc(N4CCOCC4)c(F)c3)cc2)nc1N1CCOCC1 [MTR-0211, 1-[4-(4-Chloro-5-methylsulfanyl-6-morpholin-4-yl-pyrimidin-2-yl)-phenyl]-3-(3-fluoro-4-morpholin-4-yl-phenyl)-urea]	42
CSc1c(Cl)nc(-c2ccc(NC(=O)Nc3ccc(N4CCN(C)CC4)cc3)cc2)nc1N1CCOCC1 [MTR-0215, 1-[4-(4-Chloro-5-methylsulfanyl-6-morpholin-4-yl-pyrimidin-2-yl)-phenyl]-3-[4-(4-methyl-piperazin-1-yl)-phenyl]-urea]	53.6
CCOC(=O)c1nc(-c2ccc(NC(=O)Nc3ccc(N4CCOCC4=O)cc3)cc2)nc(N2CCOCC2)c1OCC [MTR-0222, 5-Ethoxy-6-morpholin-4-yl-2-(4-{3-[4-(3-oxo-morpholin-4-yl)-phenyl]-ureido}-phenyl)-pyrimidine-4-carboxylic acid ethyl ester]	44.3
